# Experimental data reported in patent publication US20070269420A1, “Compounds, Compositions and Methods for Treatment and Prophylaxis of Hepatitis C Viral Infections and Associated Diseases” (priority 2003, published 2007).
# What was measured:
# 559^R cells = assay: Crystal violet qualitative cell proliferation assay, 5 day incubation, resistant clone; type: cell-based, human; conditions: crystal violet staining
# Method: (§1) The cellular toxicity of Compound A at different concentrations was assessed on different cell lines following crystal violet staining (qualitative cell proliferation assay) after 5 day incubation. Huh7 cells are human hepatoma cells. A genotype 1b replicon-containing cell line derived from Huh7 cells (Clone-A) was obtained from Apath, LLC. Clone-A cells were selected under Compound B drug pressure and a resistant clone was selected (559^R) which contained mutations in NS4B gene.
# [1] = test system: HCV replicon (BB7 sequence) in Huh-7-Clone A cells; assay: HCV replicon NS5A ELISA, inhibition of viral RNA replication; type: cell-based, hepatitis C virus; conditions: measured by Elisa and quantitative RT-PCR, Clone-A cells
# Method: Antiviral activity of representative compounds of the invention was evaluated in a human liver-derived cell line (Huh-7-Clone A) containing the HCV replicon (BB7 sequence) (See Lohmann et al. Science. 1999, 285:110-3; Blight K J et al., Science. 2000, 290:1972-4; Pietschmann, T. et al., J. Virol. 2001, 73:1252-1264; and Lohmann, V. et al., J. Virol. 2001, 75:1437-1449). The HCV replicon is a subgenomic viral RNA that expresses the HCV proteins required for its own replication. These proteins include non-structural proteins NS3, NS4A, NS4B, NS5A and NS5B. The replicon also contains a foreign gene encoding a drug-selectable marker (neomycin phosphotransferase) to allow for G418 (neomycin) selection of cells that contain the replicon.
# An ELISA (enzyme-linked immunosorbant assay) was used to determine the effect of compounds within the scope of the invention on the amount of HCV NS5A protein produced after a 72-hour incubation of the replicon-containing cells in the presence of varying concentrations of compound. Huh7-Clone A cells were seeded in 96-well plates at a subconfluent density (9000 cells/well) in medium containing 2% FBS and incubated for 4 hours to allow attachment to occur. HCV-086 (solubilized with 100% dimethylsulfoxide [DMSO]) was added to wells using an 8-point, 3-fold serial dilution series, with a final DMSO concentration of 1% in a total volume of 200 μL. Plates were incubated for 72 hours at 37° C. and 5% CO2. Under these conditions, the cells are approximately 25% confluent at the time of seeding and 80-90% confluent on day 3. COSTAR® 96-well cell culture plates were used but other known cell culture plates may be used. After incubation, media is removed from wells and the cells are fixed to the assay plate using 0.05% glutaraldehyde (Fisher # 02957-4). The glutaraldehyde is then washed off using phosphate-buffered saline (PBS) following a 1 hour incubation and cells are blocked for non-specific antibody binding using for example SUPERBLOCK® reagent (blocking buffer) in PBS. The blocking agent is rinsed from the cells with PBS after 1 hour at 37° C., and HCV NS5A monoclonal antibody (Virostat # 1873) is added to each well containing compound. Primary antibody is incubated for 1 hour at 37° C. and rinsed 3 times with PBS containing 0.02% TWEEN-20™ before addition of Horseradish Peroxidase (HRP) conjugated secondary antibody. HRP is incubated for 1 hour at 37° C. and rinsed several times, first with PBS/TWEEN-20™ followed by PBS alone. To quantify peroxidase activity, 3,3′,5,5′-tetramethylbenzidine (TMB) substrate is added to the plate and after 30 minutes, the plates are read in an ELISA plate reader at an OD of 650 nm.
# Compound dose response was measured in an 8-point dose curve diluted serially to determine the inhibitory concentration at 50% (EC50 value). […] Ranges of 50% effective concentrations (EC50s) for the representative compounds within the scope of this invention are listed in Tables 1-8. Preferred compounds have 50% effective concentrations at about 30 μM or less, more preferred compounds have 50% effective concentrations at about 5 μM or less, and most preferred compounds have 50% effective concentrations at about 0.5 μM or less.
# Clone-A cells [2] = assay: Crystal violet qualitative cell proliferation assay, 5 day incubation, Clone-A; type: cell-based, human; conditions: crystal violet staining
# Method: as §1
# Huh-7 cells = type: cell-based; conditions: human, 5 day
# Method: as §1
# HCV NS4B = target: T1, HCV NS4B (Hepatitis C virus genotype 1b, UniProt Q9WMX2); assay: NS4B binding assay (quenching of intrinsic protein fluorescence); conditions: fluorescent binding assay
# T1 construct: NS4B was cloned, expressed and purified to establish an assay; made in house
# T1 sequence (Q9WMX2 1712-1972): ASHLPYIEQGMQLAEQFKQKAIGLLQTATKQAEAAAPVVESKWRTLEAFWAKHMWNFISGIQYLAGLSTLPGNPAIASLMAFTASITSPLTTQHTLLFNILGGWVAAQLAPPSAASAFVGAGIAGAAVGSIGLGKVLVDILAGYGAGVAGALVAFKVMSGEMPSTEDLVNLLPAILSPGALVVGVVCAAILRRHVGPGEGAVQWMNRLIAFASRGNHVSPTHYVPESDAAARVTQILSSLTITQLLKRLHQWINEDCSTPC
# Text: NS4B was cloned, expressed and purified to establish an assay, which takes advantage of the intrinsic fluorescent properties of proteins and identifies compounds, which inhibit by a NS4B specific mechanism. This protein is necessary for viral replication. It is thought to act as an anchor securing the replication complex to cellular membranes, where replication is known to occur. Several other functions necessary for viral replication have also ascribed to NS4B.
# Clone-A cells [3] = assay: Genomic DNA fragmentation by agarose gel electrophoresis; type: cell-based, human; conditions: Huh7, Clone-A and 559^R treated
# Method: DNA fragmentation is a measure of apoptotic cell death. Huh7, Clone-A and 559^R were treated with Compound B and genomic DNA fragmentation determined by agarose gel electrophoresis.
SMILES,cellular toxicity (559^R cells) [µM],activity against HCV-replicon [1],cellular toxicity (Clone-A cells [2]) [µM],cellular toxicity (Huh-7 cells) [µM],binding activity towards purified HCV NS4B (HCV NS4B),genomic DNA fragmentation (apoptose) (Clone-A cells [3])
"Cc1nn(-c2nnc3c4ccccc4n(C)c3n2)c(C)c1-c1ccccc1 [Compound A, 2-(3,5-dimethyl-4-phenyl-pyrazol-1-yl)-9-methyl-9H-1,3,4,9-tetraaza-fluorene]",~30,demonstrated activity,~3,~30,demonstrated binding activity,–
"CCCCc1c(C)nn(-c2nnc3c4ccccc4n(CC)c3n2)c1C [Compound B, 2-(4-butyl-3,5-dimethyl-pyrazol-1-yl)-9-ethyl-9H-1,3,4,9-tetraaza-fluorene]",–,demonstrated activity,–,–,demonstrated binding activity,cause DNA fragmentation (apoptose) in Clone-A cells only
